In publication PMC6017873 (Molecules : A Journal of Synthetic Chemistry and Natural …, 2018):

Tests used:
[1] = test system: primary human CD34+ stem/progenitor cells; experiment: Growth and viability of primary CD34+ stem/progenitor cells; format: cell-based
Protocol: Figure 7 Only very high concentrations of eurochevalierine impair the growth of healthy primary human CD34^+ stem/progenitor cells. CD34^+ cells were incubated with the indicated concentrations of eurochevalierine and cell growth (a) and viability (b) were assessed after 72 h of treatment. Results correspond to the mean ± SD of three independent experiments with * and ** indicate p < 0.05 and p < 0.01 versus control.
Primary CD34^+ progenitor/stem cells were isolated from human umbilical cord blood obtained from the Clinique Bohler (Hôpitaux Robert Schuman, Luxembourg, Luxembourg) with the written informed consent of parents with the approval of the National Research Ethics Committee of Luxembourg. First, mononucleated cells were isolated by Ficoll™ (GE Healthcare, Roosendaal, The Netherlands) density gradient centrifugation. CD34^+ cells were then purified out from mononucleated cells using magnetic cell sorting following the manufacturer’s instructions (MACS Miltenyi, Utrecht, The Netherlands).
High purity CD34^+ cells were treated after 3 days of amplification in Stemline® II Hematopoietic Stem cell Expansion Medium (Sigma) supplemented with 1% antibiotic-antimycotic (BioWhittaker®, Lonza, Verviers, Belgium), 4 mM L-glutamine (BioWhittaker®), 50 ng/mL stem cell factor (ReliaTech, Wolfenbüttel, Germany), and 10 ng/mL interleukin 3 (Reliatech, Wolfenbüttel, Germany). Other cell models were cultured in RPMI1640 (BioWhittaker®) supplemented with 10% heat-inactivated fetal calf serum (BioWhittaker®) and 1% antibiotic-antimycotic. Cell lines were cultured at 37 °C in a humid atmosphere and at 5% CO2.
(§1) PBMCs and CD34^+ cells were processed through a semi-automated image-based cell analyzer (Cedex XS Innovatis, Roche, Luxembourg), which provides information about cell concentration and viability based on the Trypan Blue exclusion method.

[2] = test system: panel of cancer cell lines; design: method as in PMID 22976482; details: read-out: mean IC50 for the growth inhibition of cancer cells; cited from earlier work
[3] = test system: PBMCs from healthy donors; experiment: Viability of PBMCs from healthy donors (Trypan Blue exclusion); format: cell-based; details: up to 48 h, up to 100 µM
Protocol: The viability of PBMCs from healthy donors was assessed after 24 and 48 h of treatment at the indicated concentration of eurochevalierine. Results correspond to mean ± SD of three independent experiments.
PBMCs were isolated as previously reported.
as §1

HDAC6 = molecular target: T1, HDAC6 (Homo sapiens, UniProt Q9UBN7); experiment: Selective in vitro HDAC activity assay, recombinant HDAC6; format: biochemical
T1 sequence (Q9UBN7 1-1215): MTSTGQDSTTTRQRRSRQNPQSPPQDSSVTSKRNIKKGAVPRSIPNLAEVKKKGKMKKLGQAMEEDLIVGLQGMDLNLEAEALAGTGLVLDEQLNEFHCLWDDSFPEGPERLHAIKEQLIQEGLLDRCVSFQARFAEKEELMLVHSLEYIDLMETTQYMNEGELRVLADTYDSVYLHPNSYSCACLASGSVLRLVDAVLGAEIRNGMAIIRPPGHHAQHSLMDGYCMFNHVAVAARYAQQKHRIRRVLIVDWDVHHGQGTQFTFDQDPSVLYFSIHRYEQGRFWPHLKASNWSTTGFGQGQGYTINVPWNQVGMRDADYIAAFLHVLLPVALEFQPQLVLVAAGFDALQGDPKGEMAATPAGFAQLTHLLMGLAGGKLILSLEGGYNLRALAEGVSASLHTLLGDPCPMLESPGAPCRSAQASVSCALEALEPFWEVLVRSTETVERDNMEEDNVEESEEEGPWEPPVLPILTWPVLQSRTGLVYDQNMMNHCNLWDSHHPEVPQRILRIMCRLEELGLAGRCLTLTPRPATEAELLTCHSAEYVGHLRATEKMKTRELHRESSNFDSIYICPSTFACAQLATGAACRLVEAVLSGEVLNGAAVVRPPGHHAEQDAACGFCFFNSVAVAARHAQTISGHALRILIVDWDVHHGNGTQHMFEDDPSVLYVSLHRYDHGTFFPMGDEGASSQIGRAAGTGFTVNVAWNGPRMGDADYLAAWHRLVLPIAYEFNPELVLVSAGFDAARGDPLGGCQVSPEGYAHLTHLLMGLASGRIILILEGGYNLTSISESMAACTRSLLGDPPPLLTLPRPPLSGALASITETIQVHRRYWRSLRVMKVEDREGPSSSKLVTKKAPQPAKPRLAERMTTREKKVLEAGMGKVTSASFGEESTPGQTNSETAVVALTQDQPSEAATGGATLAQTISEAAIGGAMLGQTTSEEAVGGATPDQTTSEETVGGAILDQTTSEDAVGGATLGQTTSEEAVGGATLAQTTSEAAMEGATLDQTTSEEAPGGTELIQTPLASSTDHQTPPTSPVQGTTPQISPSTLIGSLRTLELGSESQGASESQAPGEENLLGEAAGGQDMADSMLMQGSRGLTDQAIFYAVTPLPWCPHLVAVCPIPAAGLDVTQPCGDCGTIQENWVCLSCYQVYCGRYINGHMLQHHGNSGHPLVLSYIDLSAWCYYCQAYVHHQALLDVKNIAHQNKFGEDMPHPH
Protocol: (§2) (a) In vitro total HDAC activity was evaluated using K-562 nuclear extracts in the presence of various concentrations of eurochevalierine. (b) Selective in vitro HDAC activity assays were carried out using selected recombinant HDAC proteins in the presence of various concentrations of eurochevalierine. Results are reported as percent of DMSO vehicle control and expressed as the mean ± SD of three independent experiments. * and ** indicate p < 0.05 and p < 0.01 versus untreated cells, respectively.

HDAC3 = HDAC3 (Homo sapiens, UniProt O15379); experiment: Selective in vitro HDAC activity assay, recombinant HDAC3; format: biochemical; details: 100 µM
Protocol: as §2

[4] = test system: total HDAC activity (K-562 nuclear extracts); experiment: In vitro total HDAC activity using K-562 nuclear extracts; format: biochemical, human; details: 100 µM
Protocol: as §2

Chain of HDAC3 (O15379 whole entry): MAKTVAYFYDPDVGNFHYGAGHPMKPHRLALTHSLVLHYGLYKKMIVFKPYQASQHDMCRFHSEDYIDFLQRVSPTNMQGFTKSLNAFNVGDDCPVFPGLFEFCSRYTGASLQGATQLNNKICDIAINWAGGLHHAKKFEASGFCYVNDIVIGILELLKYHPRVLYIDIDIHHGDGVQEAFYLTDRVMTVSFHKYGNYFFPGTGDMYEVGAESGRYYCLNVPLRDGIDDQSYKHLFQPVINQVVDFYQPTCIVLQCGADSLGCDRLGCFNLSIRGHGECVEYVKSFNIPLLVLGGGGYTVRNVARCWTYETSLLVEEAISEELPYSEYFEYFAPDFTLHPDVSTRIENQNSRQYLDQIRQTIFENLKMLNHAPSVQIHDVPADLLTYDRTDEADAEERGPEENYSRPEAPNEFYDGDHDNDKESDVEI
Chain of HDAC3 (Q9Y618 395-489 partner limits assumed): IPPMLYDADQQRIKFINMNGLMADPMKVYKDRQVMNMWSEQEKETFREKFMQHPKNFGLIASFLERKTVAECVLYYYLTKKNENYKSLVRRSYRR

**Q.** Which “impact on CD34+ cell viability” value ([1]; 200 µM, 72 h) does the source give for `C=C(C)[C@@H]1CC[C@@H](C)[C@@]2(O)[C@@H]1C=C(C)[C@@H](OC(C)=O)[C@@H]2OC(=O)[C@H](CC(=O)c1ccccc1NC)NC=O` [Eurochevalierine, eurochevalierine] here?
**A.** minor impact on cell viability

**Q.** And the IC50 ([1]; Homo sapiens, 72 h, read-out: IC50 growth inhibition of CD34+ cells)?
**A.** > 200 µM

**Q.** And the inhibition at 200 µM ([1]; Homo sapiens, 200 µM, 72 h, read-out: maximum growth inhibition of CD34+ cells)?
**A.** ~30%

**Q.** What about the “selectivity factor cancer cells versus normal proliferating CD34+ cells” value ([1]; IC50 in healthy cells (>200 µM) versus mean IC50 in cancer cells (28 µM)) of the same molecule?
**A.** > 7

**Q.** And the IC50 [2]?
**A.** 28 µM

**Q.** And the “acute toxicity on viability of PBMCs” value [3]?
**A.** does not trigger any acute toxicity

**Q.** And the inhibition at 100 µM (HDAC6)?
**A.** ~36%

**Q.** And the “induction of HDAC3 activity” value (HDAC3)?
**A.** 1.5 fold

**Q.** And the “inhibition of total HDAC activity” value [4]?
**A.** about 33%
